The target in experiment [1] is T1, human dopamine transporter (DAT) (Homo sapiens, UniProt Q01959).
T1 construct: expressed in transfected cells; host or cells: CHO (hDAT-CHO), membrane preparation
Briefly: Scintillation Proximity Assay (SPA) competition binding, [3H]WIN-35,428, hDAT-CHO membranes. In general terms: Scintillation proximity formats need no separation of bound from free tracer.

Experiment [2] concerns the target T2, human norepinephrine transporter (NET) (Homo sapiens, UniProt P23975).
T2 construct: expressed in transfected cells; host or cells: CHO (hNET-CHO), membrane preparation
As to the kind of experiment: Scintillation Proximity Assay (SPA) competition binding, [3H]nisoxetine, hNET-CHO membranes.

For experiment [3], the target named is T3, human serotonin transporter (SERT) (Homo sapiens, UniProt P31645).
T3 construct: expressed in transfected cells; host or cells: CHO (hSERT-CHO), membrane preparation
T3 sequence (P31645 whole entry): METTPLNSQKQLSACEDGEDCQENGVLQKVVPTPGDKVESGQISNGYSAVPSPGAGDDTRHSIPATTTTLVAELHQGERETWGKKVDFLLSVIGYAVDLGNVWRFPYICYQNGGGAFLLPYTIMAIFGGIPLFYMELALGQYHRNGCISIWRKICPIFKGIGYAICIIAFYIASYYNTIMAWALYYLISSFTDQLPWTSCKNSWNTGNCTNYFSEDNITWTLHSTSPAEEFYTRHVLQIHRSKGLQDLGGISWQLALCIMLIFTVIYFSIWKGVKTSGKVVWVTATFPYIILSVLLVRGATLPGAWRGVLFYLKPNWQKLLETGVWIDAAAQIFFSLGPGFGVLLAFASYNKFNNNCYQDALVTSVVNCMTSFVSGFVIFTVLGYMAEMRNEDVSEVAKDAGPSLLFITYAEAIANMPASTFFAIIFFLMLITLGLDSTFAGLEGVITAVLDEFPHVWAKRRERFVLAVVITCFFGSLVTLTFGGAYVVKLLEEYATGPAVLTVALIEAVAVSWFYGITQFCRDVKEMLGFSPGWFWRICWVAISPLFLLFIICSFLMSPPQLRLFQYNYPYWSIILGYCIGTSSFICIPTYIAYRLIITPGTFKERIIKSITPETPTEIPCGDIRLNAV
Briefly: Scintillation Proximity Assay (SPA) competition binding, [3H]citalopram, hSERT-CHO membranes.

Experiment [4] concerns the target human ERG potassium channel (hERG) (Homo sapiens, UniProt Q12809). Briefly: cell-based. The protocol: Measure of the Effect on hERG Channel by Tail Current Recording Using In Vitro Rapid ICE™
The potency of the compounds of the invention in inhibiting human ERG potassium channel (hERG) tail current is assessed in a recombinant HEK293 cell line stably transfected with hERG cDNA using Rapid ICE™ (Rapid Ion Channel Electrophysiology) assay. Rapid ICE™ is an automated patch-clamp assay utilizing the PatchXpress 7000A system (Molecular Devices Corporation) or the QPatch HTX system (Sophion Bioscience A/S).
Briefly cells are cultivated for 24 to 72 hours before recordings in minimum essential medium supplemented with 10% FBS, 1% non-essential amino acids, 1% sodium pyruvate, 2 mM L-glutamine. The day of the experiment cells are detached with TrypLE and prepared to be loaded on the instrument. For PatchXpress cells are finally resuspended in 150 μl of Extracellular Buffer whereas for QPatch cells are resuspended in 7 ml Serum-Free Media containing 25 mM Hepes and Soybean trypsin inhibitor and immediately placed in the cell storage tank of the machine. The composition of the Extracellular Buffer is (mM): NaCl 137; KCl 4; CaCl2 1.8; MgCl2 1.0; D-glucose 10; N 2 hydroxyethylpiperazine-N′-2-ethanesulfonic acid (HEPES) 10; pH 7.4 with 1 M NaOH. The composition of the pipette solution is (mM): KCl 130; MgCl2 1.0; Ethylene glycol-bis(R-aminoethyl ether)-N,N,N′,N′-tetraacetic acid (EGTA) 5; MgATP 5; HEPES 10; pH 7.2 with 1 M KOH. The voltage protocol includes the following steps: step from −80 mV to −50 mV for 200 ms, +20 mV for 4.8 s, step to −50 mV for 5 s then step to the holding potential of −80 mV. Compounds of the invention are dissolved in DMSO and diluted in Extracellular Buffer to achieve final test concentrations (0.1, 1 and 10 μM) in 0.1% DMSO. The voltage protocol is run and recorded continuously during the experiment. The vehicle, corresponding to 0.1% DMSO in Extracellular Buffer, is then applied for 3 min followed by the test substance in triplicate. The standard combined exposure time is 5 min. The average of tail current amplitude values recorded from 4 sequential voltage pulses is used to calculate for each cell the effect of the test substance by calculating the residual current (% control) compared with vehicle pre-treatment. Data are reported as % inhibition for each concentration tested and IC50 values are estimated using DataXpress or QPatch software. At least two cells are tested, more if results diverge.

Where [5] appears, read: read-out: pIC50 DAT (converted).

Counter-ions that a name gives are not always drawn. Like-named read-outs stand apart in the source and are kept apart here.

T1 sequence (Q01959 whole entry): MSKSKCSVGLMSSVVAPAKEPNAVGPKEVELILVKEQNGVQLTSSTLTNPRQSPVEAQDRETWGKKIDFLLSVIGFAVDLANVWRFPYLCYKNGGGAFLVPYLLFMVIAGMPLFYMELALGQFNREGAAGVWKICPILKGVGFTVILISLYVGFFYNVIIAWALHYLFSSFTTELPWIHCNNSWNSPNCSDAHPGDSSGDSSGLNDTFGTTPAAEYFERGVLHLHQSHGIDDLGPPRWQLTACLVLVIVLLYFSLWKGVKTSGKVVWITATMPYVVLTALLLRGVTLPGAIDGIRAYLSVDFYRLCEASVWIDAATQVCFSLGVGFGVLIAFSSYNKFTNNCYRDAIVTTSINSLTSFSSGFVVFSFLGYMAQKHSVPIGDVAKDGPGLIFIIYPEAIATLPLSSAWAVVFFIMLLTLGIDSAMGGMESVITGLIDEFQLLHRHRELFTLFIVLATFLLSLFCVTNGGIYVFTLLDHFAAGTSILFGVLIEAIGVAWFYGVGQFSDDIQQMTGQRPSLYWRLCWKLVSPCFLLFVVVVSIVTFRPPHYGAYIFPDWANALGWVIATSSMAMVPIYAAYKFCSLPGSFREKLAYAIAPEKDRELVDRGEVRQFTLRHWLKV
Chain of human ERG potassium channel (hERG) (Q12809 whole entry): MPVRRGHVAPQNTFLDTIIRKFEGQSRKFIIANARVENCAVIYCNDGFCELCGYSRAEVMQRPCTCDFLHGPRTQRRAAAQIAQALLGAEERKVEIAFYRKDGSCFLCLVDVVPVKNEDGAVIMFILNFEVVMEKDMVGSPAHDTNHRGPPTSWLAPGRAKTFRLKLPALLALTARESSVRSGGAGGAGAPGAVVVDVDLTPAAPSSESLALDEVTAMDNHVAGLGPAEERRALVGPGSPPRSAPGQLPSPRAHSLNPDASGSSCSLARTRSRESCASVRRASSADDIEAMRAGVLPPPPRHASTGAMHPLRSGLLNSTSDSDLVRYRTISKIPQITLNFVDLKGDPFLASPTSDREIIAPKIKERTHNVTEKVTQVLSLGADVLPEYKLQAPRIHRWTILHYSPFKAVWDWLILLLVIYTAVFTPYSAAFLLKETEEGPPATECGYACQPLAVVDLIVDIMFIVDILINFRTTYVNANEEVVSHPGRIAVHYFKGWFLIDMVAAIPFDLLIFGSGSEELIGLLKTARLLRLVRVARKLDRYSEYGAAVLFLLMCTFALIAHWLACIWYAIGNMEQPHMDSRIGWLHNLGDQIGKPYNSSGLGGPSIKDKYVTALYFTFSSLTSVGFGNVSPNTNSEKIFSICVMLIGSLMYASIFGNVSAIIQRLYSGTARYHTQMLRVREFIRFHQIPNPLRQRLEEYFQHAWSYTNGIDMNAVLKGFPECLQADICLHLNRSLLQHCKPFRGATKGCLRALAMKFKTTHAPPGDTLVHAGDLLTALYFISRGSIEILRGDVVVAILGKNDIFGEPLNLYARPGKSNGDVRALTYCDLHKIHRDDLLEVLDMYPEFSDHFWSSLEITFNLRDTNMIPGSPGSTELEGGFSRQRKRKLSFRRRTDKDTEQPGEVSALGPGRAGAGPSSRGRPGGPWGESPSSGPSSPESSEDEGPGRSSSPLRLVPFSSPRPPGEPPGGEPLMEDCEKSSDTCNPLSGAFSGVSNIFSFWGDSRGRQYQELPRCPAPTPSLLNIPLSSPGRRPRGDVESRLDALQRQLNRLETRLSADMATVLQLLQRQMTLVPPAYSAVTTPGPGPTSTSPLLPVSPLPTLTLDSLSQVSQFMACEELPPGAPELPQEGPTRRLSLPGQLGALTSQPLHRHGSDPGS
T2 sequence (P23975 whole entry): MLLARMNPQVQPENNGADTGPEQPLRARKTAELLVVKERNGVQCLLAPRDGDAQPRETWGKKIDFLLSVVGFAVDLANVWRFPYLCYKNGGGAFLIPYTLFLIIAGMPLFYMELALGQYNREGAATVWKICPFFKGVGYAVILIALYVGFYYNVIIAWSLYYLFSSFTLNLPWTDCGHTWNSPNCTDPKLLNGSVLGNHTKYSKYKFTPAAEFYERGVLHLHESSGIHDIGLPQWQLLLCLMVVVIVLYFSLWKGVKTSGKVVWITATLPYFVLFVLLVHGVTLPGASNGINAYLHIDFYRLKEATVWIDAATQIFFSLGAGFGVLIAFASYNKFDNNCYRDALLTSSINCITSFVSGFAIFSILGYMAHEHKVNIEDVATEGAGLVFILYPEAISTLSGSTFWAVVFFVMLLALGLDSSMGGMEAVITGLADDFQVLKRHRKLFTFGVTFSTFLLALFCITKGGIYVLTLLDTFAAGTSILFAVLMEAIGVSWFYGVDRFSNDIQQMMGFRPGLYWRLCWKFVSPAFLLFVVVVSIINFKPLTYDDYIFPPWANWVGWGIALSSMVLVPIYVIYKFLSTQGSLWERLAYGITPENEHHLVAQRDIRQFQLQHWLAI

For the compound `OC1CCNCC12CCN(C(c1ccc(F)cc1)c1ccc(F)cc1)C2` (stereo not shown) [Example 3, 2-[bis(4-fluorophenyl)methyl]-2,7-diazaspiro[4.5]decan-10-ol], the IC50 in experiment [1] (pIC50 DAT) is 70.8 nM; in experiment [2] it was 4470 nM; in experiment [3] it was 12.9 µM; in experiment [4], 2.51 µM.
`O=C1CCNC[C@@]12CCN(C(c1ccc(F)cc1)c1ccc(F)cc1)C2` (single isomer, unassigned) [Example 7, (5R or 5S)-2-[bis(4-fluorophenyl)methyl]-2,7-diazaspiro[4.5]decan-10-one]: the IC50 in experiment [1] (setting [5]) is 162 nM; in experiment [2] it was 2140 nM; in experiment [3] it was 14.1 µM.
The corresponding values for `O=C1CCNC[C@]12CCN(C(c1ccc(F)cc1)c1ccc(F)cc1)C2` (single isomer, unassigned) [Example 8, (5S or 5R)-2-[bis(4-fluorophenyl)methyl]-2,7-diazaspiro[4.5]decan-10-one] are 132 nM, 1380 nM and 7.41 µM.
In the case of `O=C1CCNC[C@]12CCN(C(c1ccc(F)cc1)c1ccc(F)cc1)C2` (single isomer, unassigned) [Example 10, (5S or 5R)-2-[bis(4-fluorophenyl)methyl]-2,7-diazaspiro[4.5]decan-10-one dihydrochloride salt], the IC50 in experiment [1] (setting [5]) is 148 nM; in experiment [2] it was 6460 nM; in experiment [3], 15.5 µM; in experiment [4] (hERG tail current, HEK293 cells, read-out: pIC50 hERG (converted)), 5.01 µM.
With `Fc1ccc(C(c2ccc(F)cc2)N2CCC3(CC2)CNCCO3)cc1` [Example 31, 9-[bis(4-fluorophenyl)methyl]-1-oxa-4,9-diazaspiro[5.5]undecane], the IC50 in experiment [1] (pIC50 DAT) was 46.8 nM; in experiment [2] it was 2040 nM; in experiment [3] it was 2.63 µM; in experiment [4], 3.16 µM.
Regarding `O[C@@H]1CCNC[C@@]12CCN(C(c1ccc(F)cc1)c1ccc(F)cc1)C2` (single isomer, unassigned) [Example 13, 2-[bis(4-fluorophenyl)methyl]-2,7-diazaspiro[4.5]decan-10-ol], the results for the IC50 in experiment [1] (setting [5]), in experiment [2] and in experiment [3] were 174 nM, 4270 nM and 19.5 µM, respectively.
Take `OC1CNCCC12CCN(C(c1ccc(F)cc1)c1ccc(F)cc1)C2` (stereo not shown) [Example 21, 2-[bis(4-fluorophenyl)methyl]-2,8-diazaspiro[4.5]decan-6-ol]: the IC50 is 186 nM in experiment [1] (setting [5]), 6030 nM in experiment [2] and 6.76 µM in experiment [3].
Taken in the same sequence, the figures for `Fc1ccc(C(c2ccc(F)cc2)N2CCC3(CCCNC3)C2)cc1` (stereo not shown) [Example 22, 2-[bis(4-fluorophenyl)methyl]-2,7-diazaspiro[4.5]decane] were 110 nM, 5750 nM and 6.46 µM.
The corresponding values for `Clc1ccc(C(c2ccc(Cl)cc2)N2CCC3(CCNCC3)C2)cc1` [Example 28, 2-[bis(4-chlorophenyl)methyl]-2,8-diazaspiro[4.5]decane] are 316 nM, 1230 nM and 0.676 µM.
With `Fc1ccc(C(c2ccc(F)cc2)N2CCC3(CCNCC34OCCO4)C2)cc1` (stereo not shown) [Example 20, 8-[bis(4-fluorophenyl)methyl]-1,4-dioxa-8,13-diazadispiro[4.0.4^6.4^5]tetradecane], the IC50 in experiment [1] (pIC50 DAT) is 28.8 nM; in experiment [2], 2000 nM; in experiment [3], 2.09 µM.
Consider `FC1=CCNC[C@]12CCN(C(c1ccc(F)cc1)c1ccc(F)cc1)C2` (single isomer, unassigned) [Example 18, (5S or 5R)-2-[bis(4-fluorophenyl)methyl]-10-fluoro-2,7-diazaspiro[4.5]dec-9-ene], for which the IC50 is 30.2 nM in experiment [1] (pIC50 DAT), 1860 nM in experiment [2], 9.33 µM in experiment [3] and 3.16 µM in experiment [4].
With `COC1CCNCC12CCN(C(c1ccc(F)cc1)c1ccc(F)cc1)C2` (mixture of isomers) [Example 5, 2-[bis(4-fluorophenyl)methyl]-10-methoxy-2,7-diazaspiro[4.5]decane], the IC50 in experiment [1] (setting [5]) is 145 nM; in experiment [2], 3240 nM; in experiment [3] it was 7.41 µM.
As for `Fc1ccc(C(c2ccc(F)cc2)N2CCC3(CC2)CNCCS3)cc1` [Example 32, 9-[bis(4-fluorophenyl)methyl]-1-thia-4,9-diazaspiro[5.5]undecane], the IC50 in experiment [1] (pIC50 DAT) is 58.9 nM; in experiment [2] it was 2450 nM; in experiment [3] it was 2.34 µM.
Regarding `O[C@@H]1CCNC[C@]12CCN(C(c1ccc(F)cc1)c1ccc(F)cc1)C2` (single isomer, unassigned) [Example 11, 2-[bis(4-fluorophenyl)methyl]-2,7-diazaspiro[4.5]decan-10-ol], the IC50 is 224 nM in experiment [1] (setting [5]), 3550 nM in experiment [2] and 12.9 µM in experiment [3].
Taken in the same sequence, the figures for `Fc1ccc(C(c2ccc(F)cc2)N2CCCC3(CCNCC3)C2)cc1` [Example 25, 2-[bis(4-fluorophenyl)methyl]-2,9-diazaspiro[5.5]undecane] were 363 nM, 2400 nM and 1.58 µM.
Take `O=C1CCNCC12CCN(C(c1ccc(Cl)cc1)c1ccc(Cl)cc1)C2` (stereo not shown) [Example 19, 2-[bis(4-chlorophenyl)methyl]-2,7-diazaspiro[4.5]decan-10-one]: the IC50 in experiment [1] (setting [5]) was 204 nM; in experiment [2], 3310 nM; in experiment [3] it was 1.78 µM.
Taken in the same sequence, the figures for `O[C@@H]1CCNC[C@]12CCN(C(c1ccc(F)cc1)c1ccc(F)cc1)C2` (single isomer, unassigned) [Example 12, 2-[bis(4-fluorophenyl)methyl]-2,7-diazaspiro[4.5]decan-10-ol] were 302 nM, 7940 nM and 17 µM.
Taken in the same sequence, the figures for `CO/N=C1\CCNC[C@]12CCN(C(c1ccc(F)cc1)c1ccc(F)cc1)C2` (single isomer, unassigned) [Example 15, (5S or 5R,10E)-2-[bis(4-fluorophenyl)methyl]-N-methoxy-2,7-diazaspiro[4.5]decan-10-imine] were 204 nM, 2000 nM and 4.79 µM.
Taken in the same sequence, the figures for `CN1CCCC2(CCN(C(c3ccc(F)cc3)c3ccc(F)cc3)C2)C1` (stereo not shown) [Example 23, 2-[bis(4-fluorophenyl)methyl]-7-methyl-2,7-diazaspiro[4.5]decane] were 115 nM, 5010 nM and 4.27 µM.
As for `O[C@@H]1CCNC[C@@]12CCN(C(c1ccc(F)cc1)c1ccc(F)cc1)C2` (single isomer, unassigned) [Example 14, 2-[bis(4-fluorophenyl)methyl]-2,7-diazaspiro[4.5]decan-10-ol], the IC50 was 200 nM in experiment [1] (setting [5]), 1740 nM in experiment [2] and 22.4 µM in experiment [3].
Turning to `Fc1ccc(C(c2ccc(F)cc2)N2CCC3(CCCNC3)CC2)cc1` [Example 26, 9-[bis(4-fluorophenyl)methyl]-2,9-diazaspiro[5.5]undecane], the values for the IC50 in experiment [1] (setting [5]), in experiment [2] and in experiment [3] were 135 nM, 2000 nM and 5.25 µM, respectively.
For the compound `Fc1ccc(C(c2ccc(F)cc2)N2CCC3(CNCCC34OCCO4)C2)cc1` (stereo not shown) [Example 6, 8-[bis(4-fluorophenyl)methyl]-1,4-dioxa-8,12-diazadispiro[4.0.4^6.4^5]tetradecane], the IC50 in experiment [1] (setting [5]) was 309 nM; in experiment [2], 4470 nM; in experiment [3], 3.39 µM.
The corresponding values for `Clc1ccc(C(c2ccc(Cl)cc2)N2CCC3(CNCCO3)C2)cc1` (stereo not shown) [Example 30, 2-[bis(4-chlorophenyl)methyl]-6-oxa-2,9-diazaspiro[4.5]decane] are 151 nM, 2400 nM and 0.912 µM.
Taken in the same sequence, the figures for `Fc1ccc(C(c2ccc(F)cc2)N2CCCC3(CCNC3)C2)cc1` (stereo not shown) [Example 24, 7-[bis(4-fluorophenyl)methyl]-2,7-diazaspiro[4.5]decane] were 537 nM, 295 nM and 11 µM.
